Reference: patent US10286038B2, “Lysosome membrane protein 2 (LIMP-2) based peptides and related uses” (Northwestern University, priority 2016, dated 2019)

How the values were obtained:
[1] = test system: endogenous and overexpressed GC in cell lysates; details: after incubation with peptide
Description: The artificial substrates were dissolved in sodium citrate buffer (0.2 M Na-citrate, 0.4% BSA, pH 4.6). All activity assays were performed at acid pH.
Cell lysate protein (20-200 μg) or recombinant protein (0.2 nmol GC/N370S or LAMAN) was incubated with 100 μL of 10 mM artificial absorbent substrate (4-nitrophenyl β-D-glucopyranoside or 4-nitrophenyl-N-acetyl-β-D-glucosaminide). The samples were incubated at 37° C. for 2 h to measure GC activity or for 5 h to assess LAMAN activity. The reaction was stopped by applying 500-1,000 μL of stop solution (0.4 M glycine, pH 10.4), and the absorbance was measured in a clear 96-well plate at 405 nm in a plate reader (Synergy HT; BioTek). Enzyme activities of cellular lysates were normalized to protein concentration (expressed in milliunits per milligram) and are shown relative to buffer control. Enzyme activities of recombinant proteins are shown as milliunits per milligram or are stated relative to buffer control.

[2] = target: T1, recombinant N370S mutant GC (Homo sapiens, UniProt P04062, N409S); assay: activity assay of recombinant N370S mutant GC (4-MU substrate); type: biochemical; details: cell-free, tenfold molar amount of peptide, relative to buffer control
T1 sequence (P04062 40-536 N409S): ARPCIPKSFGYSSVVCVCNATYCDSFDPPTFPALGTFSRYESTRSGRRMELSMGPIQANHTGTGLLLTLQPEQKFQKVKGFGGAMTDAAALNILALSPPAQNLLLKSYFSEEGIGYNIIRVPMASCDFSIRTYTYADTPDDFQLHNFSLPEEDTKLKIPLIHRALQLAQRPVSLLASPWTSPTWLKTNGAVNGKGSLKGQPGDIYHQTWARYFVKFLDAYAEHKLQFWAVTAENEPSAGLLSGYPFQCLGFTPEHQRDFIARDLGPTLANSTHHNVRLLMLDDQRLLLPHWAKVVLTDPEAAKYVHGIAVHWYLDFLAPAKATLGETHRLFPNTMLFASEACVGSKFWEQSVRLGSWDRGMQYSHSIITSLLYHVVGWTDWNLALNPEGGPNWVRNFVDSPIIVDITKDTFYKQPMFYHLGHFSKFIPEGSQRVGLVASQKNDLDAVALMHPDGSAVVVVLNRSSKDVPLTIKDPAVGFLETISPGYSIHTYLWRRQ
Description: To determine the enzymatic activity of the recombinant enzymes, lyophilized enzymes were reconstituted in the NaPi buffer described above. The lyophilized samples of wild-type GC (Cerezyme®) and the custom-made recombinant N307S mutant enzyme contain 0.01% polysorbate 80 (Tween 80) (see prescription information for Cerezyme® at the website for Cerezyme®). As indicated in our experiments, the concentration of the detergent is sufficient to support active GC enzyme and to perform the in vitro GC activity assays without adding further detergents to the reaction mix. […]
Using the fluorescent substrate 4-MU (FIG. 3K), 10 μL of the recombinant enzyme/peptide mixture (0.1 nmol GC/N370S previously incubated with 1 nmol helix 5 TAT peptide in 50 mM NaPi buffer; total incubation volume 40 μL) were incubated directly with 60 μL of 0.2 M sodium citrate buffer and 10 μL of the substrate (5 mM dissolved in 0.2 M sodium citrate buffer) in a black-bottomed 96-well dish (Nunc no. 446473; Thermo Fisher Scientific). […] The fluorescence was assessed at an excitation wavelength of 365 nm and an emission wavelength of 445 nm in a SpectraMax i3 plate reader (Molecular Devices). […]

Row | Substance | enzymatic activity of endogenous and overexpressed GC in cell lysates [1] | increase in the activity of the N370S mutant GC [2]
1 | Biotin-Ttds-LREIIEAMLKAYQQKLFVTHTVDE [helix 5 peptide] | could also be increased | 
2 | Biotin-Ttds-KFERQLREIIEAMLKAYQQKLFVTHTVDEYGRKKRRQRRR [helix 5 TAT-peptide] |  | four-fold increase
